From US12521378B2, “Administration of R-beta-hydroxybutyrate salt blend and related compounds in humans” (priority 2016, dated 2026)

What was measured:
[1] = blood ketone levels after R-, L- or D,L-beta-hydroxybutyrate; assay type: in vivo, human; settings: 5 g or 10 mg (so in the source)
Procedure: Individuals were 5 g or 10 mg of R-beta-hydroxybutyrate, L-beta-hydroxybutyrate, or D,L-beta-hydroxybutyrate and blood ketone levels were measured.

[2] = lifespan of rats on low-fat standard American diet; assay type: in vivo, Fischer 344 rats; settings: supplemented versus standard diet at 20 months
Description: Sixteen rats (Fischer 344 rats) were studied for the effect of R-beta-hydroxybutyrate on lifespan. A first grouping of eight rats were fed an equivalent to a low-fat standard American diet and a second grouping of eight rats were fed the same equivalent to a low-fat standard American diet and supplemented with R-beta-hydroxybutyrate salt (e.g., sodium R-beta-hydroxybutyrate). The second grouping of rats were supplemented with the R-beta-hydroxybutyrate salt at middle age. FIG. 7 illustrates the average lifespans of the groupings of rats. […] Since the rat study was performed as an approximation of impact in humans, the addition of R-beta-hydroxybutyrate to a standard American low-fat diet may increase lifespan.

[3] = motor function testing by eye movements in an individual with Parkinson's disease; assay type: in vivo, human; settings: approximately 10 g; approximately 30 minutes after administration; one Parkinson's patient, pre vs post
Description: The testing included a right-eye visual and motor performance apparatus to track motor function through eye movements. FIG. 8 illustrates chart illustrating the results of the motor skill testing following an example implementation of administration of R-beta-hydroxybutyrate. FIG. 8 illustrates average results for a similar non-Parkinson's population, the patient pre-administration of R-beta-hydroxybutyrate, and the patient post-administration of R-beta-hydroxybutyrate.

[4] = Xray absorptiometry, fat mass and lean mass; assay type: in vivo, human; settings: 5 g twice daily for 3 months; one individual
Procedure: Xray absorptiometry was performed to determine the impact of the administration of R-beta-hydroxybutyrate on fat loss. […] As illustrated, the individual experienced a greater than approximately 10% decrease in fat mass. […] Thus, the R-beta-hydroxybutyrate may cause weight loss through fat loss rather than lean mass (e.g., muscle mass).

Lipoprotien lipase (LPL) = experiment: average Lipoprotien lipase (LPL) in rats; assay type: in vivo; settings: standard diet plus salt equivalent to 5 g or 10 g; 10 rats per grouping
Description: FIG. 11 illustrates the average Lipoprotien lipase (LPL) in the rats. Since LPL is needed to transport fat into adipose tissue, lowering LPL levels would inhibit fat storage and encourage usage of fat storages.

C-reactive protein = C-reactive protein levels after administration; assay type: in vivo, human; settings: one individual with high C-reactive protein; 62.5 before administration
Procedure: (§1) An individual with high C-reactive protein, which is associated with inflammation, was administered R-beta-hydroxybutyrate. […] In addition, fasting glucose was decreased (e.g., 104 to 95).

[5] = fasting glucose after administration; assay type: in vivo, human; settings: same individual; 104 before administration
Procedure: as §1

[6] = 2 km time test on wingate cycle ergometer; assay type: in vivo, human; settings: 10 g, 30 minutes before 2 km time test
Procedure: Five healthy individual were given a 2 km time test (e.g., 4 cycles of low to severely intense exercise on a […] ergometer) 30 minutes after administration of a placebo, 10 g of R-beta-hydroxybutyrate, and 10 g of […]. FIG. 12 illustrates the average blood ketone levels and FIG. 13 illustrates the percentage improvement over the administration of the placebo. […] FIG. 14 illustrates the perceived exertion experienced by the individuals. […] Thus, the R-beta-hydroxybutyrate has an unexpectedly impact on ketone levels and performance.

superoxide dismutase 2 = superoxide dismutase 2 levels in the brain; assay type: in vivo; settings: e.g. 10 g; standard or ketogenic diet
Procedure: Individuals were given a standard diet or ketogenic diet. Some individuals were administered R-beta-hydroxybutyrate (e.g., 10 g).

[7] = Respiratory exchange ratio (RER); assay type: in vivo, human; settings: 10 subjects
Procedure: 10 subjects were administered approximately 5 g or 10 g of D,L-beta-hydroxybutyrate or R-beta-hydroxybutyrate, and Respiratory exchange ratio was examined (RER, a ratio of carbon dioxide/oxygen).

[8] = perceived hunger, satiety and perceived energy; assay type: in vivo, human
Procedure: FIGS. 18A-18C illustrate the results of the testing. FIG. 18A illustrates perceived hunger, FIG. 18B illustrates perceived satiety, and FIG. 18C illustrates perceived energy. […] R-beta-hydroxybutyrate sustained elevated perceived energy levels from 0 minutes at 60, 90, and 120 minutes post consumption, as opposed to D,L-beta-hydroxybutyrate.

[9] = Bench Press strength and power testing at 50% of 1-RM; assay type: in vivo, human; settings: 5 g; for increase in minimum power: averages of power measurements
Procedure: FIGS. 19A-19B illustrate the results of the testing. […] Thus, R-beta-hydroxybutyrate experienced a greater than expected impact when compared with D,L-beta-hydroxybutyrate. The individuals were also tested for power. FIG. 19C illustrates the results of the testing (e.g., averages of power measurements). As illustrated, R-beta-hydroxybutyrate administration increased minimum power by 26%, while the DL-beta-hydroxybutyrate administration raised power by 2%.

[10] = mental acuity testing (tracking, saccades, processing speed, response accuracy); assay type: in vivo, human
Procedure: Processing speed testing was performed (e.g, processing speed is considered a true measure of cognitive performance). […] Response accuracy was also tested.

[11] = blood ketone level over time after administration of sodium beta-hydroxybutyrate; assay type: in vivo, human; settings: 5 mg of sodium R-beta-hydroxybutyrate (so in the source); average of 4 subjects; 30, 60, 90, 120 and 180 minutes
[12] = glucose challenge test (75 g glucose), blood glucose levels; assay type: in vivo, human
Procedure: Five subjects were subject to three separate glucose challenge tests (75 g glucose) after administration of 500 mg berberine (BB), 250 mg of dihydroberberine (DHBB) or 500 dihydroberberine. Blood was drawn prior to administration and after 30, 60, 90, 120, and 180 minutes. FIG. 1 illustrates the results of the administration protocol. FIG. 1 illustrates the average blood glucose level of the 5 subjects at each of the times.
As in Example 1, five subjects were subject to three separate glucose challenge tests (75 g glucose) after administration of 500 mg berberine (BB), 250 mg of dihydroberberine (DHBB) or 500 dihydroberberine. FIG. 2 illustrates a ranking which compositions caused the lowest blood glucose levels during a oral glucose challenge. […] For example, in some individuals (e.g., individuals with moderate glucose tolerance) may achieve better blood glucose control when administered a lower dosage of DHBB.
Five subjects were subject to three separate glucose challenge tests (75 g glucose) approximately 25 minutes after administration of 500 mg berberine (BB), 250 mg of dihydroberberine (DHBB) or 500 dihydroberberine. Blood was drawn prior to administration and after 30, 60, 90, 120, and 180 minutes and tested for glucose levels. FIG. 4 illustrates the results of the administration protocol.

[13] = glucose challenge test, blood ketone levels; assay type: in vivo, human; settings: 250 mg DHBB alone or with 5 mg sodium beta-hydroxybutyrate; one subject; 120 minutes
Procedure: A subject was subject to a glucose challenge test (75 g glucose) after administration of 250 mg dihydroberberine (DHBB) and a glucose challenge test after administration of 250 mg dihydroberberine (DHBB) along with 5 mg of beta-hydroxybutyrate (e.g., 5 mg sodium beta-hydroxybutyrate).

[14] = before vs after, 5 resistance trained males, 50% of 1-RM

## C[C@H](O)CC(=O)O [L-beta-hydroxybutyrate]
[1]
  blood ketone levels: does not decrease blood ketones

## C[C@@H](O)CC(=O)O [R-beta-hydroxybutyrate, (R)-3-Hydroxybutyric acid]
[2]
  rats with increased lifespan: ≥ 38.5%
[3]
  motor function: increased motor function
[4]
  decrease in fat mass: > 10%
  lean mass: maintaining lean mass
Lipoprotien lipase (LPL)
  LPL levels: decreases LPL levels
C-reactive protein
  C-reactive protein levels after administration: 4.4
[5]
  fasting glucose after administration: 95
[6]
  perceived exertion: perceived exertion improvement
[6]; five healthy individuals
  blood ketone levels compared with D,L-beta-hydroxybutyrate: increased more than double
[6]; improvement over placebo
  performance (improvement in time) compared with D,L-beta-hydroxybutyrate: increased by more than double
Superoxide dismutase 2
  superoxide dismutase 2 levels (SOD) in the brain: numerically increase superoxide dismutase 2 levels
[7]; 10 g
  reduction of RER relative to D,L-beta-hydroxybutyrate: approximately 3 ×
[8]; 0 to 30 minutes post consumption, 5 g-10 g
  improvement of perceived energy relative to D,L-beta-hydroxybutyrate: double that of D,L-beta-hydroxybutyrate
[8]; 5 g-10 g
  raise of perceived energy: 18%
[8]; 30 minutes post consumption, relative to baseline, 5 g-10 g
  improvement of satiety levels relative to DL-beta-hydroxybutyrate: 2.3 ×
[8]; in vivo
  raise of perceived energy relative to peak increase with DL-beta-hydroxybutyrate: more than 2 times
[8]; post ingestion
  time for which raised perceived energy was sustained: 2 h
[9]
  increase in minimum power: 26%
[9]; [14]
  increase in Bench Press test result: 11%
[10]; e.g. 5 g
  Horizontal Saccades, improvement relative to D,L-beta-hydroxybutyrate: 4 times
  Horizontal Saccades, performance improvement: 13.8%
  improvement of processing speed: 27.7%
  increase of response accuracy: 37 percentage points
[10]; e.g. 10 g
  Circular Tracking, improvement in tracking accuracy: approximately 3%
  Vertical Tracking, improvement of performance: 13.8%
  Vertical Tracking, improvement relative to D,L-beta-hydroxybutyrate: approximately 3 times

## C[C@@H](O)CC(=O)[O-].[Na+] [sodium R-beta-hydroxybutyrate]
[11]
  blood ketone level compared with 10 g of D,L-beta-hydroxybutyrate: approximately the same blood ketone level

## COc1ccc2c(c1OC)CN1CCc3cc4c(cc3C1=C2)OCO4 [dihydroberberine]
[12]; 250 mg DHBB vs 500 mg DHBB, 5 subjects
  control of blood glucose levels during oral glucose challenge (ranking): control blood glucose levels better than even 500 mg of DHBB
[12]; 250 mg or 500 dihydroberberine vs 500 mg berberine, 5 subjects
  blood glucose during oral glucose challenge versus berberine: lower blood glucose than administration of berberine in most individuals
[12]; 75 g glucose challenge, 250 mg or 500 dihydroberberine vs 500 mg berberine, average of 5 subjects, 30-180 minutes
  fluctuations in blood glucose level: less fluctuations in blood glucose level than berberine
[12]; 75 g glucose challenge, dihydroberberine vs 500 mg berberine, 5 subjects
  blood glucose levels relative to fasting blood glucose: keep blood glucose levels closer to fasting blood glucose than berberine
[12]; individuals with moderate baseline glucose levels, glucose challenge about 25 minutes after administration, vs 500 mg berberine
  moderation of blood glucose levels: moderates blood glucose levels better than even double the quantity of berberine
[13]
  blood ketone levels after glucose challenge: unexpectedly increased even 120 minutes after the glucose challenge

## CC(O)CC(=O)O (racemic) [D,L-beta-hydroxybutyrate, reference compound]
[6]
  perceived exertion: did not feel an impact in perceived exertion
[1]
  blood ketone levels: does not lower blood ketone levels to the same extent as R-beta-hydroxybutyrate
[7]; D,L-beta-hydroxybutyrate, more than 5 g
  increase of RER: 17%
[9]
  increase in minimum power: 2%
[9]; [14]
  decrease in Bench Press test result: 2%
[10]; DL-beta-hydroxybutyrate
  increase of response accuracy: 12.7%
[10]; e.g. 5 g
  Horizontal Saccades, performance improvement: 3.2%
  improvement of processing speed: approximately 18%
[10]; e.g. 10 g
  Circular Tracking, improvement in tracking accuracy: no improvement
  Vertical Tracking, improvement of performance: 4.6%
